Experimental data reported in BindingDB's records for doi:10.1021/acs.jmedchem.9b00506 (Rapt Therapeutics, 2019).
pIC50: −log10 of the molar value.

What was measured:
[1] = Antagonist activity at CCR4 in human CCRF-CEM cells assessed as inhibition of CCL22-mediated chemotaxis in presence of 100% human serum pre-incubated for 30 mins followed by CCL22 addition and measured after 60 mins by chemoTX probe based CellTiter-Glo assay
[2] = Antagonist activity at CCR4 in anti-CD3/CD28 stimulated mouse Treg cells assessed as inhibition of CCL22-mediated chemotaxis in presence of 100% human serum pre-incubated for 30 mins followed by CCL22 addition and measured after 60 mins by chemoTX probe based CellTiter-Glo assay

pIC50 [1]	pIC50 [2]	Compound
7.15	6.78	C[C@@H]1CC(c2cnc3c(C#N)nn([C@H](C)c4ccc(Cl)cc4Cl)c3n2)=CC[C@@H]1N1CCC[C@H]1CO
6.59		Cc1nn([C@H](C)c2ccc(Cl)cc2Cl)c2nc(N3CC[C@H](N4CCC[C@H]4CCS(N)(=O)=O)[C@H](C)C3)cnc12
6.44		Cc1nn([C@H](C)c2ccc(Cl)cc2Cl)c2nc(N3CC[C@H](N4CCCCC4)[C@H](C)C3)cnc12
6.06		Cc1nn([C@H](C)c2ccc(Cl)cc2Cl)c2nc(N3CC[C@H](N4CCC[C@H]4CCC#N)[C@H](C)C3)cnc12
5.86		C[C@@H]1CC(c2cnc3c(C#N)nn([C@H](C)c4ccc(Cl)cc4Cl)c3n2)=CC[C@@H]1N1CCC[C@H]1C(N)=O
5.92		C[C@@H]1CC(c2cnc3c(C#N)nn([C@H](C)c4ccc(Cl)cc4Cl)c3n2)=CC[C@@H]1N1CCC[C@H]1C(C)(C)O
7.36	6.49	C[C@@H]1CC(c2cnc3c(C#N)nn([C@H](C)c4ccc(Cl)cc4Cl)c3n2)=CC[C@@H]1N1CCC[C@H]1C
6.20		C[C@@H]1CC(c2cnc3c(C#N)nn([C@H](C)c4ccc(Cl)cc4Cl)c3n2)=CC[C@@H]1N1CCC[C@H]1CN
6.45		Cc1nn([C@H](C)c2ccc(Cl)cc2Cl)c2nc(N3CC[C@H](N4CCC[C@H]4CCC(N)=O)[C@H](C)C3)cnc12
6.75		Cc1nn([C@H](C)c2ccc(Cl)cc2Cl)c2nc(C3=CC[C@H](N4CCC[C@H]4CO)[C@H](C)C3)cnc12
